The NIST ThermoML archive (doi:10.1021/je034102r)

Experiment: molar heat capacity at constant pressure
Conditions: 101.33 kPa, Liquid, heat bridge-scanning calorimeter

CCCCn1cc[n+](C)c1.F[P-](F)(F)(F)(F)F [1-butyl-3-methylimidazolium hexafluorophosphate]
Conditions	molar heat capacity at constant pressure [J/K/mol]
408.32 K	474.58
408.61 K	473.73
408.74 K	473.45
408.88 K	473.45
409.01 K	473.45
409.14 K	473.73
409.27 K	474.02
409.4 K	474.02
409.53 K	473.73
409.67 K	473.73
409.8 K	474.3
409.93 K	474.58
410.22 K	475.15
410.35 K	474.58
410.48 K	474.3
410.61 K	474.3
410.74 K	474.58
410.88 K	474.3
411.01 K	474.3
411.14 K	474.02
411.27 K	473.73
411.58 K	475.72
411.71 K	475.72
411.84 K	476.01
411.97 K	476.01
412.11 K	475.72
412.24 K	475.15
412.37 K	474.58
412.5 K	474.87
412.63 K	474.58
412.77 K	475.15
412.9 K	475.15
413.18 K	474.58
413.31 K	474.58
413.45 K	474.3
413.58 K	474.3
413.71 K	474.3
413.84 K	474.3
413.97 K	474.02
414.11 K	474.02
414.24 K	474.3
414.53 K	474.58
414.67 K	475.44
414.8 K	476.01
414.93 K	476.29
415.07 K	476.29
415.2 K	476.57
415.33 K	476.01
415.47 K	476.01
415.6 K	475.72
415.73 K	475.44
415.87 K	475.44
416.15 K	475.44
416.29 K	475.44
416.42 K	475.15
416.55 K	474.87
416.69 K	475.15
416.82 K	475.15
416.95 K	475.72
417.08 K	476.01
417.22 K	477.43
417.52 K	476.57
417.65 K	476.86
417.8 K	476.57
417.93 K	476.29
418.06 K	476.29
418.2 K	475.72
418.33 K	475.72
418.46 K	475.72
418.6 K	475.44
418.73 K	476.01
418.86 K	477.14
419.15 K	478.56
419.29 K	477.71
419.42 K	477.14
419.55 K	476.57
419.69 K	476.57
419.82 K	476.29
419.96 K	476.57
420.09 K	476.57
420.22 K	476.29
420.52 K	477.14
420.66 K	476.57
420.79 K	477.14
420.92 K	477.14
421.06 K	477.14
421.19 K	477.43
421.33 K	476.86
421.46 K	476.86
421.59 K	476.86
421.73 K	476.57
421.86 K	476.57
422.15 K	477.14
422.28 K	477.99
422.42 K	478.56
422.55 K	478.28
422.69 K	477.99
422.82 K	477.71
422.95 K	477.71
423.09 K	477.99
423.22 K	478.56
423.52 K	477.71
423.65 K	477.43
423.79 K	477.71
423.92 K	477.71
424.05 K	477.71
424.2 K	477.99
424.34 K	478.28
424.47 K	478.56
424.61 K	478.85
424.74 K	478.28
424.87 K	478.28
425.17 K	478.85
425.3 K	478.85
425.43 K	478.56
425.57 K	478.28
425.7 K	478.85
425.84 K	479.42
425.97 K	480.84
426.11 K	481.4
426.24 K	480.55
426.54 K	479.7
426.67 K	479.42
426.81 K	479.13
426.94 K	479.42
427.08 K	479.42
427.21 K	479.42
427.35 K	479.13
427.48 K	479.13
427.62 K	478.85
427.75 K	479.13
427.89 K	479.13
428.18 K	479.13
428.32 K	479.7
428.45 K	479.98
428.59 K	479.98
428.72 K	479.98
428.85 K	479.7
428.99 K	479.7
429.12 K	479.42
429.26 K	479.42
429.56 K	479.7
429.69 K	479.7
429.83 K	480.27
429.96 K	480.55
430.1 K	480.55
430.23 K	480.55
430.37 K	481.12
430.51 K	480.84
430.65 K	480.55
430.78 K	480.55
430.92 K	480.55
431.21 K	480.27
431.35 K	480.27
431.48 K	480.55
431.62 K	481.12
431.75 K	481.4
431.89 K	481.69
432.02 K	481.12
432.16 K	481.12
432.29 K	480.84
432.59 K	481.12
432.72 K	481.12
432.86 K	481.12
432.99 K	481.12
433.13 K	481.12
433.27 K	481.12
433.4 K	481.12
433.54 K	481.4
433.67 K	482.83
433.81 K	484.25
433.95 K	483.96
434.24 K	482.54
434.37 K	482.54
434.51 K	483.11
434.65 K	483.11
434.78 K	482.83
434.92 K	482.54
435.05 K	482.54
435.19 K	482.26
435.32 K	482.26
435.62 K	482.83
435.76 K	483.11
435.9 K	483.11
436.03 K	483.39
436.17 K	483.39
436.3 K	483.11
436.44 K	483.68
436.57 K	483.96
436.71 K	483.39
436.85 K	483.68
436.99 K	483.11
437.29 K	483.68
437.42 K	483.96
437.56 K	484.53
437.69 K	484.82
437.83 K	485.38
437.96 K	485.1
438.1 K	485.1
438.24 K	484.53
438.37 K	483.96
438.67 K	484.53
438.81 K	484.53
438.94 K	484.82
439.08 K	485.1
439.21 K	484.82
439.35 K	484.82
439.49 K	484.82
439.62 K	485.38
439.76 K	485.95
439.89 K	485.67
440.03 K	485.95
440.32 K	485.1
440.46 K	484.82
440.6 K	484.82
440.73 K	484.82
440.87 K	484.82
441 K	484.82
441.14 K	485.1
441.28 K	484.82
441.41 K	484.53
441.71 K	484.82
441.85 K	485.1
441.98 K	485.1
442.12 K	485.1
442.25 K	485.67
442.39 K	486.52
442.53 K	486.52
442.66 K	485.95
442.8 K	485.95
442.93 K	486.24
443.07 K	486.24
443.37 K	485.95
443.51 K	485.95
443.65 K	485.95
443.78 K	485.95
443.92 K	486.24
444.05 K	485.95
444.19 K	486.24
444.32 K	485.95
444.46 K	486.52
444.76 K	485.95
444.9 K	485.95
445.03 K	485.95
445.17 K	486.24
445.3 K	486.8
445.44 K	486.52
445.58 K	487.37
445.71 K	487.37
445.85 K	486.8
445.99 K	487.09
446.12 K	486.52
446.42 K	487.09
446.55 K	487.09
446.69 K	487.09
446.83 K	487.37
446.96 K	487.94
447.1 K	487.66
447.23 K	487.66
447.37 K	487.37
447.51 K	487.09
447.81 K	489.08
447.94 K	489.65
448.08 K	489.36
448.22 K	488.51
448.35 K	488.23
448.49 K	487.94
448.62 K	487.94
448.76 K	488.23
448.9 K	487.94
449.03 K	487.66
449.17 K	487.94
449.46 K	487.94
449.6 K	487.94
449.74 K	488.79
449.89 K	489.08
450.02 K	489.36
450.16 K	489.08
450.3 K	488.51
450.43 K	488.51
450.57 K	488.23
450.87 K	488.51
451 K	489.08
451.14 K	489.08
451.28 K	488.79
451.41 K	488.51
451.55 K	488.51
451.69 K	488.51
451.82 K	489.08
451.96 K	489.36
452.1 K	489.36
452.23 K	489.08
452.53 K	489.08
452.67 K	488.79
452.8 K	489.65
452.94 K	490.5
453.07 K	491.07
453.21 K	490.5
453.35 K	490.21
453.48 K	489.93
453.62 K	489.65
453.92 K	489.65
454.06 K	489.93
454.2 K	489.93
454.33 K	489.93
454.47 K	489.65
454.61 K	489.65
454.74 K	489.93
454.88 K	489.93
455.02 K	489.93
455.15 K	489.93
455.29 K	489.93
455.59 K	490.5
455.72 K	490.5
455.86 K	490.21
456 K	490.5
456.13 K	490.78
456.28 K	490.78
456.42 K	490.78
456.56 K	490.78
456.69 K	491.07
457 K	491.35
457.13 K	491.35
457.27 K	491.35
457.41 K	491.07
457.54 K	491.07
457.68 K	491.64
457.82 K	491.64
457.95 K	491.64
458.09 K	491.64
458.23 K	492.2
458.37 K	492.49
458.66 K	492.49
458.8 K	492.2
458.93 K	491.92
459.07 K	491.92
459.21 K	491.92
459.35 K	492.2
459.48 K	492.49
459.62 K	492.77
459.76 K	493.34
460.06 K	492.49
460.19 K	492.77
460.33 K	494.19
460.47 K	495.05
460.6 K	494.76
460.74 K	494.48
460.88 K	493.62
461.01 K	493.06
461.15 K	492.77
461.28 K	492.77
461.42 K	493.06
461.72 K	493.34
461.85 K	493.06
461.99 K	492.77
462.12 K	493.06
462.26 K	493.06
462.4 K	492.77
462.53 K	493.34
462.67 K	493.06
462.82 K	493.06
463.12 K	493.34
463.26 K	493.06
463.39 K	493.62
463.53 K	493.34
463.67 K	493.34
463.81 K	493.62
463.94 K	493.62
464.08 K	493.62
464.22 K	493.62
464.35 K	494.48
464.49 K	495.33
464.79 K	497.32
464.92 K	496.18
465.06 K	495.33
465.2 K	494.76
465.34 K	494.48
465.47 K	495.05
465.61 K	495.9
465.75 K	495.9
465.89 K	496.47
466.19 K	494.76
